Measurements reported in ChEMBL document CHEMBL6109089, “Design, synthesis and optimization of Apcin analogues as Cdc20 inhibitors for triple-negative breast cancer therapy” (Eur J Med Chem, 2025).
Values belong to the compound of their own block, whether it stands above or below them. Activity calls are given as the source filed them. The calls are words filed in the database; no cut-off is given here.

Key:
MDA-MB-231 [1] = assay: Induction of apoptosis in human MDA-MB-231 cells assessed as necrotic cells at 4 uM incubated for 24 hrs by Annexin V-FITC/PI staining based flow cytometry analysis (reference value: 0.033%); assay type: functional
[2] = Toxicity in BALB/c nude mouse assessed as change in AST level in liver serum at 15 to 30 mg/kg, ip administered daily for 18 days; assay type: organism-based; settings: in vivo, 432 h, dose 15-30 mg/kg, time 18 day
MDA-MB-231 [3] = assay: Induction of apoptosis in human MDA-MB-231 cells assessed as viable cells at 8 uM incubated for 24 hrs by Annexin V-FITC/PI staining based flow cytometry analysis (reference value: 94.1%); assay type: functional; settings: read-out: Activity
MDA-MB-231 [4] = assay: Induction of cell cycle arrest in human MDA-MB-231 cells assessed as increase in accumulation of cells at G2/M phase at 4 uM measured after 24 hrs by PI staining based flow cytometry analysis (reference value: 26.38%); assay type: functional
[5] = Antiproliferative activity against rat H9c2 cells assessed as inhibition of cell growth measured after 48 hrs by CCK-8 method; assay type: toxicity, cell-based
[6] = Toxicity in BALB/c nude mouse assessed as effect on liver at 15 to 30 mg/kg, ip measured after 18 days; assay type: organism-based; settings: in vivo, 432 h, dose 15-30 mg/kg, time 18 day
MDA-MB-231 [7] = assay: Induction of apoptosis in human MDA-MB-231 cells assessed as late apoptotic cells at 2 uM incubated for 24 hrs by Annexin V-FITC/PI staining based flow cytometry analysis (reference value: 0.46%); assay type: functional
MDA-MB-231 [8] = assay: Induction of apoptosis in human MDA-MB-231 cells assessed as viable cells at 2 uM incubated for 24 hrs by Annexin V-FITC/PI staining based flow cytometry analysis (reference value: 94.1%); assay type: functional; settings: read-out: Activity
MDA-MB-231 [9] = assay: Antitumor activity against human MDA-MB-231 cells xenografted in BALB/c nude mouse model assessed as reduction in tumor growth at 30 mg/kg, ip administered daily for 18 days by vernier caliper method relative to control; assay type: functional; design: scale not given: the % may be the effect or the level left; settings: time 18 day
MDA-MB-231 [10] = assay: Induction of apoptosis in human MDA-MB-231 cells assessed as viable cells at 4 uM incubated for 24 hrs by Annexin V-FITC/PI staining based flow cytometry analysis (reference value: 94.1%); assay type: functional; settings: read-out: Activity
[11] = Toxicity in BALB/c nude mouse assessed as effect on kidney at 15 to 30 mg/kg, ip measured after 18 days; assay type: organism-based; settings: in vivo, 432 h, dose 15-30 mg/kg, time 18 day
[12] = Toxicity in BALB/c nude mouse assessed as change in CK level in heart serum at 15 to 30 mg/kg, ip administered daily for 18 days; assay type: organism-based; settings: in vivo, 432 h, dose 15-30 mg/kg, time 18 day
MDA-MB-231 [13] = assay: Induction of cell cycle arrest in human MDA-MB-231 cells assessed as increase in accumulation of cells at G2/M phase at 8 uM measured after 24 hrs by PI staining based flow cytometry analysis (reference value: 26.38%); assay type: functional
MDA-MB-231 [14] = assay: Antitumor activity against human MDA-MB-231 cells xenografted in BALB/c nude mouse model assessed as reduction in tumor volume at 15 to 30 mg/kg, ip administered daily for 18 days by vernier caliper method; assay type: functional, organism-based; settings: dose 15-30 mg/kg, time 18.0 day
[15] = Toxicity in BALB/c nude mouse assessed as change in LDH level in heart serum at 15 to 30 mg/kg, ip administered daily for 18 days; assay type: organism-based; settings: in vivo, 432 h, dose 15-30 mg/kg, time 18 day
MDA-MB-231 [16] = assay: Antitumor activity against human MDA-MB-231 cells xenografted in BALB/c nude mouse model assessed as reduction in tumor weight at 15 to 30 mg/kg, ip administered daily for 18 days by vernier caliper method; assay type: functional, organism-based; settings: dose 15-30 mg/kg, time 18.0 day
MDA-MB-231 [17] = assay: Induction of cell cycle arrest in human MDA-MB-231 cells assessed as increase in accumulation of cells at G2/M phase at 2 uM measured after 24 hrs by PI staining based flow cytometry analysis (reference value: 26.38%); assay type: functional
[18] = Toxicity in BALB/c nude mouse assessed as change in CREA level in kidney serum at 15 to 30 mg/kg, ip administered daily for 18 days; assay type: organism-based; settings: in vivo, 432 h, dose 15-30 mg/kg, time 18 day
[19] = Antiproliferative activity against human HK-2 cells assessed as inhibition of cell growth measured after 48 hrs by CCK-8 method; assay type: toxicity, cell-based
MDA-MB-231 [20] = assay: Induction of apoptosis in human MDA-MB-231 cells assessed as late apoptotic cells at 8 uM incubated for 24 hrs by Annexin V-FITC/PI staining based flow cytometry analysis (reference value: 0.46%); assay type: functional
[21] = Toxicity in BALB/c nude mouse assessed as change in BUN level in kidney serum at 15 to 30 mg/kg, ip administered daily for 18 days; assay type: organism-based; settings: in vivo, 432 h, dose 15-30 mg/kg, time 18 day
MDA-MB-231 [22] = assay: cells; settings: Homo sapiens, MDA-MB-231, 48 h
Description: Antiproliferative activity against human MDA-MB-231 cells assessed as inhibition of cell growth measured after 48 hrs by CCK-8 method

MDA-MB-231 [23] = assay: Antiproliferative activity against human MDA-MB-231 cells assessed as reduction in number of cells in S phase at 1 to 4 uM measured after 48 hrs by EdU incorporation assay; assay type: functional, cell-based; settings: dose 1-4 µM
MDA-MB-231 [24] = assay: Induction of apoptosis in human MDA-MB-231 cells assessed as early apoptotic cells at 8 uM incubated for 24 hrs by Annexin V-FITC/PI staining based flow cytometry analysis (reference value: 5.40%); assay type: functional
MDA-MB-231 [25] = assay: Antitumor activity against human MDA-MB-231 cells xenografted in BALB/c nude mouse model assessed as reduction in tumor growth at 15 mg/kg, ip administered daily for 18 days by vernier caliper method relative to control; assay type: functional; design: scale not given: the % may be the effect or the level left; settings: time 18 day
MDA-MB-231 [26] = assay: Induction of apoptosis in human MDA-MB-231 cells assessed as early apoptotic cells at 4 uM incubated for 24 hrs by Annexin V-FITC/PI staining based flow cytometry analysis (reference value: 5.40%); assay type: functional
[27] = Antiproliferative activity against human MCF-10A cells assessed as inhibition of cell growth measured after 48 hrs by CCK-8 method; assay type: toxicity, cell-based
MDA-MB-231 [28] = assay: Induction of cell cycle arrest in human MDA-MB-231 cells assessed as upregulation of phosphorylated histone H3 level at 2 to 4 uM measured after 12 hrs by Western blot analysis; assay type: functional, cell-based; settings: dose 2-4 µM
[29] = Toxicity in BALB/c nude mouse assessed as change in ALT level in liver serum at 15 to 30 mg/kg, ip administered daily for 18 days; assay type: organism-based; settings: in vivo, 432 h, dose 15-30 mg/kg, time 18 day
MDA-MB-231 [30] = assay: Induction of DNA damage in human MDA-MB-231 cells assessed as increase in gamma-H2AX fluorescence intensity at 1 to 4 uM incubated for 48 hrs by immunofluorescence staining based analysis; assay type: functional, cell-based; settings: dose 1-4 µM
[31] = Toxicity in BALB/c nude mouse assessed as effect on body weight at 15 to 30 mg/kg, ip administered daily for 18 days; assay type: organism-based; settings: in vivo, 432 h, dose 15-30 mg/kg, time 18 day
MDA-MB-231 [32] = assay: Induction of apoptosis in human MDA-MB-231 cells assessed as necrotic cells at 2 uM incubated for 24 hrs by Annexin V-FITC/PI staining based flow cytometry analysis (reference value: 0.033%); assay type: functional
MDA-MB-231 [33] = assay: Induction of apoptosis in human MDA-MB-231 cells assessed as increase in cleaved PARP expression at 2 to 4 uM measured after 12 hrs by Western blot analysis; assay type: functional, cell-based; settings: dose 2-4 µM
MCF7 = assay: cells; settings: Homo sapiens, MCF7, 48 h
Description: Antiproliferative activity against human MCF7 cells assessed as inhibition of cell growth measured after 48 hrs by CCK-8 method

[34] = Toxicity in BALB/c nude mouse assessed as effect on heart at 15 to 30 mg/kg, ip measured after 18 days; assay type: organism-based; settings: in vivo, 432 h, dose 15-30 mg/kg, time 18 day
MDA-MB-231 [35] = assay: Induction of apoptosis in human MDA-MB-231 cells assessed as early apoptotic cells at 2 uM incubated for 24 hrs by Annexin V-FITC/PI staining based flow cytometry analysis (reference value: 5.40%); assay type: functional
MDA-MB-231 [36] = assay: Induction of apoptosis in human MDA-MB-231 cells assessed as late apoptotic cells at 4 uM incubated for 24 hrs by Annexin V-FITC/PI staining based flow cytometry analysis (reference value: 0.46%); assay type: functional
MDA-MB-231 [37] = assay: Induction of apoptosis in human MDA-MB-231 cells assessed as necrotic cells at 8 uM incubated for 24 hrs by Annexin V-FITC/PI staining based flow cytometry analysis (reference value: 0.033%); assay type: functional
MDA-MB-436 = assay: cells; settings: Homo sapiens, MDA-MB-436, 48 h
Description: Antiproliferative activity against human MDA-MB-436 cells assessed as inhibition of cell growth measured after 48 hrs by CCK-8 method

MDA-MB-231 [38] = assay: Induction of DNA damage in human MDA-MB-231 cells assessed as increase in gamma-H2AX expression at 1 to 4 uM incubated for 24 hrs by Western blot analysis; assay type: functional, cell-based; settings: dose 1-4 µM
[39] = Selectivity index, ratio of IC50 for antiproliferative activity against human MCF7 cells to IC50 for antiproliferative activity against human MDA-MB-231 cells; assay type: cell-based
[40] = Selectivity index, ratio of IC50 for antiproliferative activity against human MCF-10A cells to IC50 for antiproliferative activity against human MDA-MB-231 cells; assay type: toxicity, cell-based; settings: MCF-10A cells and MDA-MB-231 cells, read-out: Ratio IC50
HeLa = assay: cells; settings: Homo sapiens, 48 h
Description: Antiproliferative activity against human HeLa cells assessed as inhibition of cell growth measured after 48 hrs by CCK-8 method

SiHa = assay: cells; settings: Homo sapiens, 48 h
Description: Antiproliferative activity against human SiHa cells assessed as inhibition of cell growth measured after 48 hrs by CCK-8 method

IC50 (MDA-MB-231 [22]): 3.28 µM
IC50 (MCF7): 13.8 µM
IC50 (MDA-MB-436): 3.86 µM
Structure (SMILES): O=C(NC(Nc1nc(Cl)cc(Nc2ccc(C(F)(F)F)cc2)n1)C(Cl)(Cl)Cl)OCCNC(=O)c1cnc(C(F)(F)F)s1 (stereo unspecified)
Activity (MDA-MB-231 [1]): 0.62%
Activity [2]: Non-toxic
viability at 8 µM (MDA-MB-231 [3]): 52.4%
Activity (MDA-MB-231 [4]): 34.91%
IC50 at 48 h [5]: 19.4 µM
Activity [6]: Non-toxic
Activity (MDA-MB-231 [7]): 0.26%
viability at 2 µM (MDA-MB-231 [8]): 91.7%
Activity (MDA-MB-231 [9]): 90%
viability at 4 µM (MDA-MB-231 [10]): 85.4%
Activity [11]: Non-toxic
Activity [12]: Non-toxic
Activity (MDA-MB-231 [13]): 54.71%
Activity (MDA-MB-231 [14]): Active
Activity [15]: Non-toxic
Activity (MDA-MB-231 [16]): Active
Activity (MDA-MB-231 [17]): 26.89%
Activity [18]: Non-toxic
IC50 at 48 h [19]: 23.4 µM
Activity (MDA-MB-231 [20]): 7.61%
Activity [21]: Non-toxic
Activity (MDA-MB-231 [23]): Active
Activity (MDA-MB-231 [24]): 38.8%
Activity (MDA-MB-231 [25]): 86%
Activity (MDA-MB-231 [26]): 13.4%
IC50 at 48 h [27]: 23.9 µM
Activity (MDA-MB-231 [28]): Active
Activity [29]: Non-toxic
Activity (MDA-MB-231 [30]): Active
Activity [31]: Non-toxic
Activity (MDA-MB-231 [32]): 0.01%
Activity (MDA-MB-231 [33]): Active
Activity [34]: Non-toxic
Activity (MDA-MB-231 [35]): 7.46%
Activity (MDA-MB-231 [36]): 0.62%
Activity (MDA-MB-231 [37]): 1.1%
Activity (MDA-MB-231 [38]): Active

IC50 (MDA-MB-231 [22]): 3.98 µM
IC50 (MCF7): 7.42 µM
IC50 (MDA-MB-436): 4.6 µM
Structure (SMILES): Cc1ncc([N+](=O)[O-])n1CCOC(=O)NC(Nc1nc(Cl)cc(Nc2ccc(C(F)(F)F)cc2)n1)C(Cl)(Cl)Cl (stereo unspecified)
Ratio IC50 [39]: 1.86
IC50 at 48 h [5]: 22.5 µM
selectivity ratio [40]: 0.93
IC50 at 48 h [19]: 10.1 µM
IC50 at 48 h [27]: 3.7 µM

IC50 (HeLa): 65.4 µM
IC50 (SiHa): > 100 µM
IC50 (MDA-MB-231 [22]): > 100 µM
Structure (SMILES): Cc1ncc([N+](=O)[O-])n1CCOC(=O)NC(Nc1nc(N)cc(F)n1)C(Cl)(Cl)Cl (stereo unspecified)
